Experimental findings from ChEMBL document CHEMBL1250518, “Nonsteroidal dissociated glucocorticoid agonists containing azaindoles as steroid A-ring mimetics” (J Med Chem, 2010) are described below.

Series [1] concerns the target T1, Glucocorticoid receptor (Homo sapiens, UniProt P04150).
T1 sequence (P04150 whole entry): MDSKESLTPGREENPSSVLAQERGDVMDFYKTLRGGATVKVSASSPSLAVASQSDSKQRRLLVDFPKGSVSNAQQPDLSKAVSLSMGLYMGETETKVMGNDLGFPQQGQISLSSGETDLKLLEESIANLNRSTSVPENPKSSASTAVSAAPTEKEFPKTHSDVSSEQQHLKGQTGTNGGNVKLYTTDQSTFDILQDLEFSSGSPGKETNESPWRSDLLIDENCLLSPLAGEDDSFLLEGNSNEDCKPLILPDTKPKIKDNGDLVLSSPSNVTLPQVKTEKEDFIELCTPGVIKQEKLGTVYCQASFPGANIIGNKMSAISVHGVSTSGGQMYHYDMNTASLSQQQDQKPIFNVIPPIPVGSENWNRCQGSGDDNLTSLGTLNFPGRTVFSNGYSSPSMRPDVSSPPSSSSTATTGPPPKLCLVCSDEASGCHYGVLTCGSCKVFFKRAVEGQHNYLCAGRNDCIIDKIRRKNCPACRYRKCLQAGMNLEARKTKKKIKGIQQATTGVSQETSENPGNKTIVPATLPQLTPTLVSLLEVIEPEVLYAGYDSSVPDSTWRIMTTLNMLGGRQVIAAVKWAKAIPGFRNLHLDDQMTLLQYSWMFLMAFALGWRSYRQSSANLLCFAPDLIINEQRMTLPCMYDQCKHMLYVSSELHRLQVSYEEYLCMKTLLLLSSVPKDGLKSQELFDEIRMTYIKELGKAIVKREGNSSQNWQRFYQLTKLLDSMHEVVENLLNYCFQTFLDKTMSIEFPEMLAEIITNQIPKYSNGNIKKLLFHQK
Put plainly: Binding affinity to glucocorticoid receptor expressed in baculovirus-infected insect cells using tetramethylrhodamine labeled Dexamethasone by fluorescence polarization microplate assay. On the technique in general: Polarisation of emitted light reports the rotation of a fluorescent probe.

In another series the target is T2, Progesterone receptor (Homo sapiens, UniProt P06401).
T2 sequence (P06401 whole entry): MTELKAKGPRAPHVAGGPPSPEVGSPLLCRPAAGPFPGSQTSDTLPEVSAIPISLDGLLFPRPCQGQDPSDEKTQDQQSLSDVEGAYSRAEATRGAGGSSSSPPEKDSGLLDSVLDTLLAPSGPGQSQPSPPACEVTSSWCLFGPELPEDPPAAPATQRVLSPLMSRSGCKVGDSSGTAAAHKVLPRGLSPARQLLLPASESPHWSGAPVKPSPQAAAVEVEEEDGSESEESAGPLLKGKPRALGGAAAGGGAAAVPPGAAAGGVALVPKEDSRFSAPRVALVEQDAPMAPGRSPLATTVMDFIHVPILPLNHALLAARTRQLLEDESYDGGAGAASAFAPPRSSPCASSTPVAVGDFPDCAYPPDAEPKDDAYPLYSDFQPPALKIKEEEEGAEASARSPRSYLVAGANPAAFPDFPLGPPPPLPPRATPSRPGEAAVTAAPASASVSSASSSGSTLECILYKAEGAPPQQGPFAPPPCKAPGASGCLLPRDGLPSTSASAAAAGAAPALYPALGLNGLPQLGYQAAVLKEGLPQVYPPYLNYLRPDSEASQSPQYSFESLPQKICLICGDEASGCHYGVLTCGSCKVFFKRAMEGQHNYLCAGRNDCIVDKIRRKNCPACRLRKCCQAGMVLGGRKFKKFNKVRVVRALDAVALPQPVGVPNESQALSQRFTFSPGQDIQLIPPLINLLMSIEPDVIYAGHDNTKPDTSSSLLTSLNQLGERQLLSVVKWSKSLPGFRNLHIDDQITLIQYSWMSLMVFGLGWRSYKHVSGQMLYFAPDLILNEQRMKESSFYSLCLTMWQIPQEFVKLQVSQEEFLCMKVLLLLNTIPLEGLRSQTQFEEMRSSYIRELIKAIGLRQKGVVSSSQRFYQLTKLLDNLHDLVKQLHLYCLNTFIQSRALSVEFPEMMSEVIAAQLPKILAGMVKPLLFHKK
The series is described as follows: Binding affinity to progesterone receptor expressed in baculovirus-infected insect cells using tetramethylrhodamine labeled RU-486 by fluorescence polarization microplate assay.

In series [2] the target is T1, Glucocorticoid receptor. Put plainly: Transrepression activity at glucocorticoid receptor in HFF assessed as inhibition of IL-1-induced IL-6 production after 18 to 24 hrs by ELISA. The series is classed as cell-based.
Series [3] concerns the target T1, Glucocorticoid receptor. Put plainly: Transactivation activity at glucocorticoid receptor in human HeLa cells transfected with luciferase gene linked to MMTV promoter by luciferase assay. It is filed as cell-based.
Series [4] concerns the target T1, Glucocorticoid receptor. Put plainly: Transactivation activity at glucocorticoid receptor in HFF assessed as induction of aromatase activity after 18 to 24 hrs by ELISA. The series is classed as cell-based.
Series [5] can be described thus: Volume of distribution at steady state in Sprague-Dawley rat at 5 mg/kg, iv. The settings on record: in vivo, read-out: Vdss. More on the design: dose 5 mg/kg, route intravenous. It is filed as ADME, organism-based.
Series [6] can be described thus: Half life in Sprague-Dawley rat at 5 mg/kg, iv. It is filed as ADME, organism-based. Also noted: dose 5 mg/kg, route intravenous. Conditions: in vivo.
Series [7] is described as follows: Cmax in Sprague-Dawley rat at 30 mg/kg, po. The settings on record: in vivo. It is filed as ADME, organism-based. Also noted: dose 30 mg/kg, route oral.
The test system of series [8] is Rattus norvegicus. Put plainly: AUC (infinity) in Sprague-Dawley rat at 30 mg/kg, po. The settings on record: in vivo. The series is classed as ADME, organism-based, Plasma. More on the design: time infinity, dose 30 mg/kg, route oral.
Series [9] deals with Rattus norvegicus. The series is described as follows: Oral bioavailability in Sprague-Dawley rat at 30 mg/kg. It is filed as ADME, organism-based. The settings on record: in vivo.
Series [10] has as its system Mus musculus. The series is described as follows: Antiinflammatory activity in po dosed BALB/c mouse assessed as reduction of LPS-induced plasma TNFalpha level administered 1 hr before LPS challenge by ELISA. It is filed as functional. (ELISA stands for enzyme-linked immunosorbent assay.)
In series [11] the test system is Mus musculus. The series is described as follows: Antiinflammatory effect in collagen and Freund's complete adjuvant-induced B10.RIII mouse arthritis model assessed as inhibition of disease progression at 30 mg/kg, po qd for 5 weeks. The series is classed as functional. The settings on record: 840 h.
The subject of series [12] is Mus musculus. Put plainly: Toxicity in collagen and Freund's complete adjuvant-induced B10.RIII mouse arthritis model assessed as increase of body fat content at 30 mg/kg, po qd for 5 weeks. It is filed as organism-based. Also noted: dose 30 mg/kg, route oral. Conditions: in vivo, 840 h.
The test system of series [13] is Mus musculus. Put plainly: Toxicity in collagen and Freund's complete adjuvant-induced B10.RIII mouse arthritis model assessed as increase of serum insulin level at 30 mg/kg, po qd for 5 weeks. It is filed as organism-based. Also noted: dose 30 mg/kg, route oral. The settings on record: in vivo, 840 h.
For series [14], the system named is Mus musculus. The series is described as follows: Toxicity in collagen and Freund's complete adjuvant-induced B10.RIII mouse arthritis model assessed as increase of triglyceride level at 30 mg/kg, po qd for 5 weeks. More on the design: dose 30 mg/kg, route oral. It is filed as organism-based. The settings on record: in vivo, 840 h.
Series [15] deals with Mus musculus. The series is described as follows: Toxicity in collagen and Freund's complete adjuvant-induced B10.RIII mouse arthritis model assessed as increase of free fatty acids level at 30 mg/kg, po qd for 5 weeks. The series is classed as organism-based. More on the design: dose 30 mg/kg, route oral. The settings on record: in vivo, 840 h.
Series [16] relates to Mus musculus. Put plainly: Toxicity in B10.RIII mouse assessed as increase of body fat content at 30 mg/kg, po qd for 5 weeks. The series is classed as organism-based. More on the design: dose 30 mg/kg, route oral. The settings on record: in vivo, 840 h.
Series [17] concerns Mus musculus. The series is described as follows: Toxicity in B10.RIII mouse assessed as increase of triglyceride level at 30 mg/kg, po qd for 5 weeks. The settings on record: in vivo, 840 h. Also noted: dose 30 mg/kg, route oral. The series is classed as organism-based.
For series [18], the system named is Mus musculus. The series is described as follows: Toxicity in B10.RIII mouse assessed as increase of serum insulin level at 30 mg/kg, po qd for 5 weeks. Also noted: dose 30 mg/kg, route oral. The series is classed as organism-based. The settings on record: in vivo, 840 h.

Usually IC50 stands for the concentration at which inhibition is half-maximal. In general, EC50 refers to the concentration at which the effect is half-maximal. Usually half-life stands for how long it takes for the measured level to halve. A high value points to slow decline. One may read the Cmax as the highest concentration seen after dosing. One may read the AUC as the area under the concentration-time curve, a measure of exposure. Read a high AUC as high exposure. What is called ED50 is the dose at which the effect has come halfway, by size or by number of responders. What is called inhibition in vivo is the change of the read-out against control, counted positive when it falls. On to `CC(C)(C[C@@](O)(Cc1cc2ccncc2[nH]1)C(F)(F)F)c1cc(F)ccc1O`, for which the IC50 on Glucocorticoid receptor [1] was 2.1 nM; on Progesterone receptor, 1200 nM; at Glucocorticoid receptor [2], 3.3 nM; against Glucocorticoid receptor [3] it was 80 nM. Besides, the EC50 on Glucocorticoid receptor [4] stood at 30 nM. Besides, the Vd in series [5] was 7.6 L/kg. This compound also showed a half-life in [6] of 1.85 h. In addition, the peak level in [7] (Cmax) was 444 ng/mL. The compound also came in with an exposure (AUC) with Rattus norvegicus [8] of 2236 ng·h/mL. In the series with Rattus norvegicus [9], this compound had an F of 48%. The ED50 in the series on Mus musculus [10] is under 0.3 mg/kg. In addition, the inhibition in vivo at 30 mg/kg with Mus musculus [11] came out at 92%. In addition, the Activity entry in the series with Mus musculus [12] is reported as “Toxic”; in the series with Mus musculus [13], “Toxic”; in the series with Mus musculus [14], “Non-toxic”; with Mus musculus [15], “Non-toxic”; in the series on Mus musculus [16] it was “Non-toxic”; in the series on Mus musculus [17] it was “Toxic”. The Activity entry in the series on Mus musculus [18] is reported as “Non-toxic”.
